From a melting point compilation (Tetko et al.; mined from patent text by program, amines drawn as free bases though some values may be those of a salt)

Row | SMILES | melting point [°C]
1 | COc1ccc(-c2noc3c2C(c2cc(OC)c(OC)c(OC)c2)C2=C(COC2=O)N3)cc1 (centres undefined) | 218 to 219
2 | CC(=O)Oc1ccc(C=C2SC(=O)NC2=O)cc1 | 238 to 240
3 | C=CCN1CCC23c4c5ccc(O)c4OC2C(C)C(=NO)CC3(O)C1C5 (centres undefined) | 128 to 129
4 | CCCc1ccc(Oc2ccc3c(c2)C=C(C(=O)Nc2ccc(CN(C)C4CCOCC4)cc2)CCS3(=O)=O)cc1 | 147 to 149
5 | COc1ccc(N2CCN(CC[C@H]3CC[C@H](NC(N)=O)CC3)CC2)c(Cl)c1Cl | 195 to 198
6 | CCOC(=O)CSc1nnc(SCCCBr)s1 | 118 to 120
7 | O=C(O)c1cc(-c2cccc(C(F)(F)F)c2)nc(C(F)(F)F)c1 | 185 to 186
8 | CCOCCCNC(=O)c1ccc(S(=O)(=O)NC(=O)c2ccc(C(=O)NCC(=O)O)nc2)cc1 | 109
9 | CCOC(=O)C1CCc2cc(NS(C)(=O)=O)ccc2O1 (centres undefined) | 111
10 | COc1cccc([C@H]2O[C@H](CC#N)C(=O)N(CC(C)(C)C)c3ccc(Cl)cc32)c1OC | 193 to 194
11 | N=c1nc(Cl)cc(N)n1O | 193
12 | CCOC(=O)C(Cc1c([N+](=O)[O-])ccc(C)c1C)(NC(C)=O)C(=O)OCC | 112 to 113
13 | Oc1ccc(N2CCN(c3ccc(C(F)(F)F)cn3)CC2)cc1 | 178 to 179
14 | CCOC(=O)c1ccc(OCCOC)c(OC)c1 | 57 to 60
15 | COC1CCC2C3CCC4CC(O)CCC4(C)C3CCC12C (centres undefined) | 150 to 152
16 | O=C1CCC(C(=O)c2ccc(Cl)cc2)N1 (centres undefined) | 174
17 | COCNC(=O)NC1CC(C)(C)N(C)C(C)(C)C1 | 105
18 | CCOP(=O)(OCC)c1nc(NC2CC(C)(C)NC(C)(C)C2)nc(NC2CC(C)(C)NC(C)(C)C2)n1 | 195
19 | CN(C(=O)c1ccc2nonc2c1)C1CCSCC1 | 155 to 156
20 | O=C1OCCC12Oc1ccccc1C2=O (centres undefined) | 111 to 112

Row | SMILES | melting point [°C]
21 | CC(=O)N1CCCC(C(=O)c2ccc(N3CCCCC3)cc2)C1 (centres undefined) | 116 to 120
22 | O=C(CNS(=O)(=O)c1ccc(Nc2nccc(Nc3ccc(F)cc3)n2)cc1)NC1CCOCC1 | 253 to 254
23 | O=C1C=CC(=O)N1CCN1C(=O)C=CC1=O | 193 to 194
24 | O=C1[C@H]2Cc3c([nH]c4ccccc34)[C@@H](c3ccc4c(c3)OCO4)N2C(=O)C2CNCCN12 (some centres undefined) | 226 to 237
25 | O=C(O)c1cc2cc(C3CCCCC3)ccc2nn1 | 159 to 161
26 | CCCCCCC(CO)c1nc([N+](=O)[O-])c[nH]1 (centres undefined) | 83 to 84
27 | C=CCc1cc(C=CNC(C)=O)ccc1OCC1CO1 (centres undefined) | 135 to 136
28 | CCNC(=O)c1ccc(F)c(F)c1 | 94.1 to 96.2
29 | C=C(NC(C)=O)c1ccc(F)cn1 | 61 to 62.2
30 | CCOC(=O)C(=NOC)C1=CSc2ccccc2O1 | 78 to 80
31 | CCCCOC(=O)c1ccc(C(F)(F)F)cc1Cl | 90
32 | COC(=O)C1Cc2cc(OC)ccc2N1S(=O)(=O)c1ccc(I)cc1 (centres undefined) | 154
33 | CCOC(=O)c1cnc(Cl)c(N)c1NC | 50 to 52
34 | CC(=O)c1ccc(NC(=O)C(F)(F)F)nc1 | 147 to 149
35 | CC(C(=O)OCc1ccc([N+](=O)[O-])cc1)N(C(=O)OC(C)(C)C)C1CC1 (centres undefined) | 117 to 118
36 | COc1cc(Cl)c(NS(C)(=O)=O)cc1C(=O)NCC1CCCO1 (centres undefined) | 159 to 160
37 | FC(F)Sc1ccc(-n2cnnn2)cc1 | 94 to 97
38 | COc1cc(NCCCCCCN2CCN(c3ccccn3)CC2)c2nccc(C)c2c1 | 78 to 81
39 | CC[C@H](C)C(OCc1ccccc1)[C@@H]1[C@H]([N+](=O)[O-])[C@H](c2ccccc2)N(C(=O)CN)[C@]1(C)C(=O)NCCC(=O)O (some centres undefined) | 116
40 | CCOC(=O)c1ccc(N2CCN(Cc3cc(C)c4c(c3)NC(=O)C(C)O4)CC2)nc1 (centres undefined) | 206

Row | SMILES | melting point [°C]
41 | Nc1ccnc(C(F)(F)F)c1 | 56 to 58
42 | CCOC(=O)C1(c2ccccc2)CCN(C/C=C/C(C#N)(c2ccccc2)c2ccccc2)CC1 | 100 to 102
43 | Cc1c(Br)c2c(c(C)c1NC(=O)OC(C)(C)C)C(N(C)C)C(C)(C)O2 (centres undefined) | 111 to 112
44 | CONS(=O)(=O)c1cccc(Cl)c1 | 72 to 74.5
45 | COC(=O)c1cccc2c1OC1CC(N=[N+]=[N-])C(O)C21 (centres undefined) | 150 to 152
46 | CCOC(=O)N1Cc2cccc3c2c(cn3C)C1 | 76 to 78
47 | CNC(=O)c1c(Cl)ccc(Cl)c1OC | 172 to 175
48 | O=C(O)CNC(=O)c1nc2ccc(OCC(F)(F)C(F)(F)C(F)(F)C(F)F)cc2cc1O | 170 to 172
49 | Cc1cc(C(=O)O)n(CC(F)(F)F)n1 | 135 to 139
50 | O=C(Cl)CN1C(=O)c2ccc([N+](=O)[O-])cc2C1=O | 129 to 130
51 | CCOC(=O)CN1C(=O)CSC1=NN=C(C)C | 60 to 62
52 | OC1(CNCc2ccccc2)CCN(CCc2c[nH]c3ccc(-n4cnnc4)cc23)C1 (centres undefined) | > 56
53 | COC(=O)CCSCCCCCCCCCCCCI | 33
54 | CCOC(=O)C1(C)C(=O)Nc2cc3[nH]c(-c4cnccn4)nc3cc21 (centres undefined) | 288 to 290
55 | COc1ccc(NCc2c(F)c(F)c(C(F)(F)F)c(F)c2F)cc1C(=O)O | 94
56 | CCCCCCCCCCCCCCCCCCN(CCCCCCCCCCCCCCCCCC)C(=O)N1CCN(C)CC1 | 46 to 47
57 | CC(C)(C)c1ccc(Cn2cc(C(=O)C(=O)O)c3cc(-c4cccc(Cl)c4)ccc32)cc1 | 138 to 139
58 | CN1CCN(c2nc3sc4c(NCc5ccccn5)ncnc4c3c3c2CCC(C)(C)C3)CC1 | 200 to 202

Continued, values first:

Row | melting point [°C] | SMILES
59 | 226 to 228 | CCOc1nnc2c3ccc(Cl)cc3c(-c3ccccc3)nn12
60 | 121 to 130 | COc1ccc(-c2nc(NC(=N)N)sc2-c2ccc(OC)cc2)cc1
61 | 112 to 114 | Clc1ccc(-c2cc(C3CCN(Cc4ccccc4)CC3)no2)cc1
62 | 116 to 119 | CC(C(=O)O)c1ccc(-c2ccccc2[N+](=O)[O-])cc1 (centres undefined)
63 | 149 to 151 | Cc1c(C#N)c(-c2ccc(C#N)cc2)c(C)n1Cc1ccc(Cl)c(COC(=O)CCC(=O)O)c1
64 | 182 | Cc1c(-c2cc(Cl)cc(Cl)c2)ccc(N)c1C#N
65 | 196 to 197 | Cc1cccc(C(C)(C)C)c1NC(=O)NCC1(c2ccccc2)CCCCC1
66 | 215 | CCN(c1ccc(N2CCN(c3ccc(O)cc3)CC2)cc1)c1nccs1
67 | 157 to 158 | O=c1cc(-c2cc3ccccc3[nH]2)oc2ccccc12
68 | 69 to 70 | O=C(OCc1ccccc1)N1C=CC(c2cccc(Cl)c2Cl)C=C1
69 | 81 to 83 | CCOC(=O)Cc1ccc2cc(O)ccc2c1
70 | 130 to 132 | Cc1ccc(-c2nc(Cl)nc(Cl)c2-c2ccccc2)cc1
71 | 140 | O=S(=O)(Nc1ccccc1O)c1ccccc1
72 | 154 to 158 | CCn1c(C)nc(N2CCc3ccccc3CC2)c(C#N)c1=O
73 | 110 to 129 | COC(=O)c1ccc(Cc2cccc3ccc(CC(C)C(=O)O)cc23)c(OC)c1 (centres undefined)
74 | 287 to 289 | O=C1Cn2c(c(Cl)c3ccccc32)-c2ccccc2N1
75 | 162 to 164 | COc1cc(Nc2c(C#N)cnc3cc(-c4ccc(N5CCOCC5)cc4)ccc23)c(Cl)cc1Cl
76 | 188 to 190 | COc1ccc(-c2c([N+](=O)[O-])cnc3ccc(Cl)cc23)cc1OC
77 | 88 to 90 | COC(=O)c1cccc(Sc2ccc(N(C)C)cc2)c1
78 | 129 to 133 | NC(=O)Cc1nc(-c2ccccc2)c(-c2ccccc2)o1
79 | 244 to 246 | CCc1nc(N)nc(N)c1-c1ccc(NCc2ccc(Cl)c(Cl)c2)c([N+](=O)[O-])c1
80 | 192 to 193 | CNC(=O)n1cc2c(n1)-c1ccc(Cl)cc1C(c1ccccc1F)=NC2
81 | 103 | COc1cccc(CN=Cc2cccc(O)c2)c1

Row | melting point [°C] | SMILES
82 | 132 to 134 | COc1ccc(-c2nc(COc3cccc(N)c3)c(C)o2)cc1
83 | 50 to 54 | O=C1C(c2cccc(Br)c2)n2cncc2CN1Cc1cccnc1 (centres undefined)
84 | 178 to 179 | Cc1nc(NC(=O)c2cccc(Cl)c2)sc1C(=O)NCc1ccccc1
85 | 142 | COC(=O)CCCNC1(c2ccccc2Cl)C(=O)Nc2ccc(Cl)cc21 (centres undefined)
86 | 81.5 to 84.5 | O=C(c1ccccc1)N(c1ccccc1)c1ccc(OCCN2CCOCC2)cc1
87 | 102 | O=CC12CC(c3ccccc31)c1ccccc12
88 | 104 to 106 | c1ccc2nc3[nH]ncc3cc2c1
89 | 49 to 54 | CCCc1c(C(C)C)nc(C(C)C)c(CO)c1-c1ccc(F)cc1
90 | 109 | CCOC(=O)c1c(Cl)c2cccnc2n(Cc2ccccc2)c1=O
91 | 254 to 255 | Cc1ccc2c(=O)c(-c3nnnn3C)cn(C)c2c1
92 | 171 to 174 | COc1c(Cl)ccc(-c2cc(N)c(Cl)c(C(=O)NOCc3ccc(C)cc3)n2)c1F
93 | 109 to 110 | COC(=O)c1ccc(-c2nc(-c3cc(C)sc3C)cs2)cc1
94 | 103 to 104 | CS(=O)(=O)c1ccc(C2=C(Br)CCC2)cc1
95 | 110 to 111 | O=C(O)CCc1cnoc1-c1cccc(Cl)c1
96 | 241 to 242 | COc1ccnc(CCc2nc3cc(-c4ccc5[nH]ccc5c4)cnc3[nH]2)c1
97 | 170 to 172 | Cc1[nH]c2ccc(CCO)cc2c1C(=O)OCc1ccccc1
98 | 185 to 189 | Cc1cc(C)cc(S(=O)(=O)n2c(CCC(=O)O)cc3nc(C(F)(F)F)ccc32)c1
99 | 150 to 152 | OCc1cccc(-c2ccc3nc(-c4coc5ccccc45)cn3c2)c1
100 | 260 | NS(=O)(=O)c1cccc(NC(=O)c2cnn3c(C(F)(F)F)cc(-c4ccc(Cl)cc4)nc23)c1
101 | 160 to 161 | CCOC(=O)c1nn(-c2ccc(Cl)cc2)c(=O)c(C#N)c1C
102 | 189 | COC(=O)c1ccc(Cn2c(=O)c3cc(C(=O)NCc4ccc(OC)cc4)ccc3n(C)c2=O)cc1
103 | 93 to 94 | Nc1cc(OCc2ccccc2)ccc1C=C(Br)Br
104 | 157 | CC(C)N(NC(=O)c1ccc(Cl)c(Cl)c1)C(=O)c1ccccc1
